[ ]: non-standard residue; d: D form.

This note sets out measurements from US7053041B1, “Methods and compositions useful for inhibition of αvβ5mediated angiogenesis” (The Scripps Research Institute, priority 1996, dated 2006).

Holding throughout (type): in vivo
For assay [1], the system named is M21-L tumors. As to the kind of experiment: tumor regression on chick CAM, M21-L tumors, intravenous peptide. The conditions noted are these: 100 ug peptide intravenously 18 hours postimplantation; 48 hours more. The protocol: (§1) In one particular set of assays, additional tumor regression assays were performed with the αvβ5-reactive peptide 85189 (SEQ ID NO 9) against 69601 (SEQ ID NO 5) as a control. The assays were performed as described above with the exception that 100 ug of peptide was intravenously injected into the CAM at 18 hourst postimplantation of the various tumors which in this case included UCLAP-3, M21-L and FgM tumor types. After 48 hours more, the tumors were then resected and wet weights were obtained.

Assay [2] deals with bFGF-induced angiogenesis. As to the kind of experiment: chick CAM assay, bFGF-induced angiogenesis, intravenous inhibitors. The conditions noted are these: for inhibition of bFGF-induced CAM angiogenesis: bFGF 150 ng/ml, 75 μg antibody or peptide intravenously, 72 hours. The protocol: Ten day old chick embryos were obtained from McIntyre Poultry (Lakeside, Calif.) and incubated at 37C with 60% humidity. A small hole was made through the shell at the end of the egg directly over the air sac with the use of a small crafts drill (Dremel, Division of Emerson Electric Co., Racine, Wis.). A second hole was drilled on the broad side of the egg in a region devoid of embryonic blood vessels determined previously by candling the egg. […] A 1.0 centimeter (cm)×1.0 cm square window was cut through the shell over the dropped CAM with the use of a small model grinding wheel (Dremel). The small window allowed direct access to the underlying CAM.
Angiogenesis was induced by placing a 5 millimeter (mm)×5 mm Whatman filter disk (Whatman Filter paper No. 1) saturated with Hanks Balanced Salt Solution (HBSS, GIBCO, Grand Island, N.Y.) or HBSS containing preselected cytokines at a preselected concentration, i.e. one to test the effect on angiogenesis, on the CAM of a 10 day chick embryo in a region devoid of blood vessels and the windows were later sealed with tape. Angiogenesis was monitored by photomicroscopy after 72 hours. CAMs were snap frozen then 6 μm cryostat sections were fixed with acetone and stained by immunofluorescence as described in Example 2B and 2C with 10 μg/ml of selected anti-integrin antibodies, including those directed against αvβ5 as described in Example 1.
Angiogenesis was first induced on 10 day old chick embryos by application of growth factor-saturated filter disks. Specifically, in the first assays, angiogenesis was induced by exposure to either bFGF or VEGF, each at a concentration of 150 ng/ml.
For application of growth factors, during the candling procedures, prominent blood vessels were selected and marks were made on the egg shell to indicate their positions. The holes were drilled in the shell, the CAMs were dropped and growth factor-saturated filter papers were then separately placed on the CAMs as described above. The windows were sealed with sterile tape and the embryos were replaced in the incubator.
Twenty four hours later, a second small window was carefully cut on the lateral side of the egg shell directly over prominent blood vessels selected previously. The outer egg shell was carefully removed leaving the embryonic membranes intact. The shell membrane was made transparent with a small drop of mineral oil (Perkin-Elmer Corp, Norwalk, Conn.) which allowed the blood vessels to be visualized easily. Then, phosphate buffered saline (PBS), 75 μg of purified sterile anti-integrin antibodies or 75 μg of synthetic peptides (cyclic peptide RGDfV, SEQ ID NO 4 and control cyclic peptide RADfV, SEQ ID NO 5) in PBS were injected into blood vessels apparent on the growth factor-induced CAMs. The windows were sealed with tape and the embryos were allowed to incubate until 72 hours.
The filter discs and representative surrounding CAM tissues were photographed in a stereomicroscope (FIGS. 3A–3F and FIGS. 5A–5F) and the mean angiogenic index +/− the standard error was determined for 12 CAMs per condition (FIGS. 4A–4B and FIGS. 6A–6B). Angiogenesis was scored for each embryo in a double blind manner by analyzing the number and extent of branching of blood vessels within the area of each disc. The scores ranged from 1 (low) to 4 (high) and the angiogenesis index was determined by subtracting a background of 1 from all data. […]

Assay [3] concerns FgM tumors. As to the kind of experiment: tumor regression on chick CAM, FgM tumors, intravenous peptide. Particulars: 100 ug peptide intravenously 18 hours postimplantation; 48 hours more. The protocol: as §1
Assay [4] deals with M21L human melanoma tumors. As to the kind of experiment: chimeric mouse:human (SCID) assay, M21L melanoma tumor growth. The conditions noted are these: for tumor volume (FIG. 9): 250 μg peptide intraperitoneally 3 times per week over 3 weeks; for tumor volume (FIG. 21): M21-L tumors, peptides compared with mAB LM609. Here is the method:
An in vivo chimeric mouse:human model was generated by replacing a portion of skin from a SCID mouse with human neonatal foreskin. The in vivo chimeric mouse:human model was prepared essentially as described in Yan, et al., J. Clin. Invest., 91:986–996 (1993). Briefly, a 2 cm^2 square area of skin was surgically removed from a SCID mouse (6–8 weeks of age) and replaced with a human foreskin. The mouse was anesthetized and the hair removed from a 5 cm^2 area on each side of the lateral abdominal region by shaving. Two circular graft beds of 2 cm^2 were prepared by removing the full thickness of skin down to the fascia. Full thickness human skin grafts of the same size derived from human neonatal foreskin were placed onto the wound beds and sutured into place. The graft was covered with a Band-Aid which was sutured to the skin. Micropore cloth tape was also applied to cover the wound.
After the skin graft was established, the human foreskin was inoculated with melanoma cells. The M21L human melanoma cell line was used to form the solid human tumors on the human skin grafts on the SCID mice. A single cell suspension of 2×10^6 M21L was injected intradermally into the human skin graft. The mice were then observed for 2 to 4 weeks to allow growth of measurable human tumors.
After a measurable tumor was established, either 250 μg of the peptide (in a volume of 100 μl) having SEQ ID NO 9 (cyclic RGD-containing peptide Arg-Gly-Asp-D-Phe-Asn-NMeVAL) or a control peptide, cyclo Arg-βAla-Asp-D-Phe-Val, were injected intraperitoneally into the mouse 3 times per week over 3 weeks. At the end of this time, the tumor was excised and analyzed by weight and histology.
In additional assays with the SCID mice model having measurable M21-L tumors, in a preliminary analysis, a dose response curve was performed for peptides 69601 (control) and 85189 (test) injected over a concentration range of 10 to 250 μg/ml. The mean volume and weight of resected tumors following treatment were determined with the results respectively shown in FIGS. 22A and 22B.
For analyzing peptide 85189 treatment effectiveness over a time course, two treatment regimens were evaluated in the same SCID tumor model. In one assay, treatment with either peptide 85189 or 69601 was initiated on day 6, with day 0 being the day of M21-L tumor injection of 3×10^6 cells subcutaneously into mouse skin, with intraperitoneal injections of 250 μg/ml peptide 85189 or control 69601 every other day until day 29. The other assay was identically performed with the exception that treatment was initiated on day 20. At the end of the assays, the tumors were resected and the mean tumor volume in mm^3 was determined. The data was plotted as this value +/− the standard error of the mean.

For assay [5], the system named is UCLAP-3 tumors. As to the kind of experiment: tumor regression on chick CAM, UCLAP-3 tumors, intravenous peptide. Particulars: 100 ug peptide intravenously 18 hours postimplantation; 48 hours more. The protocol:
as §1

For “cyclo(Arg-Ala-Asp-D-Phe-Val) (cyclo(RAD[dF]V); SMILES CC(C)[C@@H]1NC(=O)[C@@H](Cc2ccccc2)NC(=O)[C@H](CC(=O)O)NC(=O)[C@H](C)NC(=O)[C@H](CCCNC(=N)N)NC1=O) [peptide 69601, reference compound]”, in assay [1], the “effect on tumor wet weight, M21-L” value was “lack of effect”. Besides, in assay [2], the “inhibition of bFGF-induced CAM angiogenesis” value is listed as “did not effect angiogenesis”. Further, the “effect on tumor wet weight, FgM” value in assay [3] is recorded as “lack of effect”. In assay [4], the “tumor volume (FIG. 9)” value is reported as “greater than 300 mm^3” and the “tumor volume (FIG. 21)” value is “approximately 360 mm^3”. Besides, the “effect on tumor wet weight, UCLAP-3” value in assay [5] is “lack of effect”.
In the case of “cyclo(Arg-Gly-Asp-D-Phe-NMeVal) [peptide 85189]”, the “effect on tumor wet weight, M21-L” value in assay [1] is “reduction in tumor weight”. Also, the “effect on tumor wet weight, FgM” value in assay [3] was “reduction in tumor weight”. In addition, in assay [4], the “tumor volume (FIG. 9)” value is recorded as “approximately 25 mm^3” and the “tumor volume (FIG. 21)” value is “below 25 mm^3”. In addition, the “inhibition of tumor growth over a time course (mean tumor volume)” value in assay [4] (250 μg/ml intraperitoneally every other day from day 6 or day 20 until day 29) is given as “inhibited tumor growth”. In assay [4] (10 to 250 μg/ml, preliminary analysis), the “inhibition of M21-L tumor growth, dose response (volume and weight)” value is reported as “effective at inhibiting M21-L tumor growth”. Besides, the most effective dosage in assay [4] (range tested 10 to 250 μg/ml) was 250 µg/mL. Also, in assay [5], the “effect on tumor wet weight, UCLAP-3” value is on record as “reduction in tumor weight”.

B1: LM609: mouse monoclonal antibody, anti-αvβ3 (antibody, V domains shown)
VH: EVQLEESGGGLVKPGGSLKLSCAASGFAFSSYDMSWVRQIPEKRLEWVAKVSSGGGSTYYLDTVQGRFTISRDNAKNTLYLQMSSLNSEDTAMYYCARHNYGSFAYWGQGTLVTVSA
VL: ELVMTQTPATLSVTPGDSVSLSCRASQSISNHLHWYQQKSHESPRLLIKYASQSISGIPSRFSGSGSGTDFTLSINSVETEDFGMYFCQQSNSWPHTFGGGTKLEIKRA
On to B1, for which, in assay [2], the “inhibition of bFGF-induced CAM angiogenesis” value was “inhibited bFGF-induced angiogenesis”. Besides, the “effect on CAM angiogenesis in response to bFGF (angiogenesis index)” value in assay [2] (bFGF 1.0 μg/ml, antibodies 75 μg per embryo, calphostin C 100 nM) was “blocked angiogenesis”. The “tumor volume (FIG. 21)” value in assay [4] was “approximately 60 mm^3”.
